According to patent US20250171462A1 (NICO Therapeutics, Inc., priority 2022, published 2025):
Like-named read-outs stand apart in the source and are kept apart here.

Molecular target: T1, full-length SARM1 (FL-SARM1) (Homo sapiens, UniProt Q6SZW1)
T1 sequence (Q6SZW1 28-724): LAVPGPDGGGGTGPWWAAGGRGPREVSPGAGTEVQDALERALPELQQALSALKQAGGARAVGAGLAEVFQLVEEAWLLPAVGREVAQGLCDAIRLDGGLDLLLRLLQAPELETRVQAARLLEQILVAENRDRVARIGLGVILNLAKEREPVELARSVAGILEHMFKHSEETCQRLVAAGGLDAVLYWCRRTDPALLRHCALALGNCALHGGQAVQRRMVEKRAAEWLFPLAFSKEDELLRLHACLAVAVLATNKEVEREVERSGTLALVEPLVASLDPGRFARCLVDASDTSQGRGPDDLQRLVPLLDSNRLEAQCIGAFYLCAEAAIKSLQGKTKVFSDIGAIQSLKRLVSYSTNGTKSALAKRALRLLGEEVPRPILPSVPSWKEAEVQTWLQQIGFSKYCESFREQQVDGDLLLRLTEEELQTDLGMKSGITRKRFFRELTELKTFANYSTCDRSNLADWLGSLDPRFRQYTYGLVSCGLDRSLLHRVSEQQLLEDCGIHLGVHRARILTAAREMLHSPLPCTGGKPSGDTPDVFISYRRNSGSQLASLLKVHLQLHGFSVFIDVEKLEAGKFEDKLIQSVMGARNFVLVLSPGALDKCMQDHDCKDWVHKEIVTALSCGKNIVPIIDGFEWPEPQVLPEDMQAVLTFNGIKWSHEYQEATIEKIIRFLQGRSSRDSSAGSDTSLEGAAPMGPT
Experiment: FL-SARM1 cellular lysate assay (NAD/NADH-Glo detection of remaining NAD+, NMN-activated)

[1] = Activity (IC50 class), 11 point curve
[2] = Activity (μM) (IC50), 11 point curve
[3] = read-out: Activity (IC50 class), 11 point curve

Structure (SMILES)	IC50 [1] [µM]	IC50 [2] [µM]	IC50 [3] [µM]
Cc1ccc(NC(=O)[C@H]2C[C@@H](C(F)(F)F)CN2c2ncn(C)n2)cc1-c1ncc(F)cn1 [Example 175, (2R,4R)—N-(3-(5-fluoropyrimidin-2-yl)-4-methylphenyl)-1-(1-methyl-1H-1,2,4-triazol-3-yl)-4-(trifluoromethyl)pyrrolidine-2-carboxamide]	1 to 10	2.4	–
Cc1ccc(NC(=O)[C@@H]2C[C@@H]3[C@H](C2)C3(F)F)cc1-c1cccnn1 [Example 176, trans-6,6-difluoro-N-(4-methyl-3-(pyridazin-3-yl)phenyl)bicyclo[3.1.0]hexane-3-carboxamide]	> 10	16	–
Cc1ccc(NC(=O)[C@H]2C[C@@H]3[C@H](C2)C3(F)F)cc1-c1cccnn1 [Example 177, cis-6,6-difluoro-N-(4-methyl-3-(pyridazin-3-yl)phenyl)bicyclo[3.1.0]hexane-3-carboxamide]	> 10	23	–
Cc1ccc(NC(=O)OCCc2ccccc2)cc1-c1ncccn1 [Example 178, Phenethyl(4-methyl-3-(pyrimidin-2-yl)phenyl)carbamate]	1 to 10	4.3	–
C[C@@H]1CC2C[C@H](C1)N2C(=O)Nc1ccc(CF)c(-c2ncc(F)cn2)c1 [Example 179, cis-N-(4-(fluoromethyl)-3-(5-fluoropyrimidin-2-yl)phenyl)-3-methyl-6-azabicyclo[3.1.1]heptane-6-carboxamide]	–	0.03	0.0001 to 1
Cc1cnc(-c2cc(NC(=O)N3C4CCCC3C4)ccc2C)nn1 [Example 180, N-(4-methyl-3-(6-methyl-1,2,4-triazin-3-yl)phenyl)-6-azabicyclo[3.1.1]heptane-6-carboxamide]	–	0.9	0.0001 to 1
Cc1cc(F)c(NC(=O)N2C3CCCC2C3)cc1-c1ncncn1 [Example 181, N-(2-fluoro-4-methyl-5-(1,3,5-triazin-2-yl)phenyl)-6-azabicyclo[3.1.1]heptane-6-carboxamide]	1 to 10	7	–
Cc1cc(F)c(NC(=O)N2CCOc3cccnc3C2C)cc1-c1cccnn1 (stereo not drawn) [Example 182, N-(2-fluoro-4-methyl-5-(pyridazin-3-yl)phenyl)-5-methyl-2,3-dihydropyrido[2,3-f][1,4]oxazepine-4(5H)-carboxamide]	1 to 10	6	–
Cc1ccc(NC(=O)N2C3C[C@@H](C)C[C@H]2C3)cc1-c1nncc(C(F)(F)F)n1 [Example 184, cis-3-methyl-N-(4-methyl-3-(5-(trifluoromethyl)-1,2,4-triazin-3-yl)phenyl)-6-azabicyclo[3.1.1]heptane-6-carboxamide]	–	0.07	0.0001 to 1
Cc1ccc(NC(=O)N2[C@@H]3C[C@@H](C)C[C@H]2C3)cc1-c1cc(OCF)cnn1 [Example 185, cis-N-(3-(5-(fluoromethoxy)pyridazin-3-yl)-4-methylphenyl)-3-methyl-6-azabicyclo[3.1.1]heptane-6-carboxamide]	–	0.05	0.0001 to 1
COC(C)[C@@]12CC(C[C@@H](C)C1)N2C(=O)Nc1ccc(C)c(-c2ncc(F)cn2)c1 (stereo partly drawn) [Example 190, cis-N-(3-(5-fluoropyrimidin-2-yl)-4-methylphenyl)-1-(1-methoxyethyl)-3-methyl-6-azabicyclo[3.1.1]heptane-6-carboxamide]	–	0.2	0.0001 to 1
Cc1ccc(NC(=O)N2C3C[C@@H](C)C[C@H]2C3)cc1-c1nccnn1 [Example 215, cis-3-methyl-N-(4-methyl-3-(1,2,4-triazin-3-yl)phenyl)-6-azabicyclo[3.1.1]heptane-6-carboxamide]	–	0.03	0.0001 to 1
Cc1ccc(NC(=O)N2C3C[C@@H](C)C[C@H]2C3)cc1-c1cc(Cl)cnn1 [Example 216, cis-N-(3-(5-chloropyridazin-3-yl)-4-methylphenyl)-3-methyl-6-azabicyclo[3.1.1]heptane-6-carboxamide]	–	0.01	0.0001 to 1
Cc1ccc(NC(=O)N2C3C[C@@H](C)C[C@H]2C3)cc1-c1cncc(Cl)n1 [Example 217, cis-N-(3-(6-chloropyrazin-2-yl)-4-methylphenyl)-3-methyl-6-azabicyclo[3.1.1]heptane-6-carboxamide]	–	0.04	0.0001 to 1
COc1cncc(-c2cc(NC(=O)N3C4C[C@@H](C)C[C@H]3C4)ccc2C)n1 [Example 218, cis-N-(3-(6-methoxypyrazin-2-yl)-4-methylphenyl)-3-methyl-6-azabicyclo[3.1.1]heptane-6-carboxamide]	–	0.03	0.0001 to 1
COc1nccnc1-c1cc(NC(=O)N2[C@@H]3C[C@@H](C)C[C@H]2C3)ccc1C [Example 219, cis-N-[3-(3-methoxypyrazin-2-yl)-4-methylphenyl]-3-methyl-6-azabicyclo[3.1.1]heptane-6-carboxamide]	1 to 10	1	–
Cc1ccc(NC(=O)N2C3C[C@H](C)C[C@@H]2C3)cc1-c1cc(F)cnn1 [Example 220, cis-N-[3-(5-fluoropyridazin-3-yl)-4-methylphenyl]-3-methyl-6-azabicyclo[3.1.1]heptane-6-carboxamide]	–	0.1	0.0001 to 1
Cc1cc(F)c(NC(=O)N2[C@@H]3C[C@@H](C)C[C@H]2C3)cc1-c1cncnn1 [Example 221, cis-N-[2-fluoro-4-methyl-5-(1,2,4-triazin-6-yl)phenyl]-3-methyl-6-azabicyclo[3.1.1]heptane-6-carboxamide]	–	0.6	0.0001 to 1
Cc1ccc(NC(=O)N2[C@@H]3C[C@@H](C)C[C@H]2C3)cc1-c1ncccn1 [Example 223, cis-3-methyl-N-(4-methyl-3-pyrimidin-2-ylphenyl)-6-azabicyclo[3.1.1]heptane-6-carboxamide]	–	0.04	0.0001 to 1
Cc1ccc(NC(=O)N2C3C[C@@H](C)C[C@H]2C3)cc1-c1cc(F)ccn1 [Example 224, cis-N-[3-(4-fluoropyridin-2-yl)-4-methylphenyl]-3-methyl-6-azabicyclo[3.1.1]heptane-6-carboxamide]	–	0.04	0.0001 to 1
Cc1ccc(NC(=O)N2[C@@H]3C[C@@H](C)C[C@H]2C3)cc1-c1cncc(C(F)(F)F)n1 [Example 228, cis-3-methyl-N-[4-methyl-3-[6-(trifluoromethyl)pyrazin-2-yl]phenyl]-6-azabicyclo[3.1.1]heptane-6-carboxamide]	–	0.09	0.0001 to 1
Cc1ccc(NC(=O)N2[C@@H]3C[C@@H](C)C[C@H]2C3)cc1-c1nccnc1C(F)(F)F [Example 229, cis-3-methyl-N-[4-methyl-3-[3-(trifluoromethyl)pyrazin-2-yl]phenyl]-6-azabicyclo[3.1.1]heptane-6-carboxamide]	–	0.2	0.0001 to 1
Cc1ccc(NC(=O)N2[C@@H]3C[C@@H](C)C[C@H]2C3)cc1-c1nccnc1F [Example 230, cis-N-[3-(3-fluoropyrazin-2-yl)-4-methylphenyl]-3-methyl-6-azabicyclo[3.1.1]heptane-6-carboxamide]	–	0.04	0.0001 to 1
Cc1ccc(NC(=O)N2C3C[C@@H](C)C[C@H]2C3)cc1-c1cncc(F)n1 [Example 231, cis-N-[3-(6-fluoropyrazin-2-yl)-4-methylphenyl]-3-methyl-6-azabicyclo[3.1.1]heptane-6-carboxamide]	–	0.08	0.0001 to 1
